We go through nine compounds from ChEMBL document CHEMBL5729474, “Heterocyclic compound as a protein kinase inhibitor” (2022).

The pIC50 is the negative decadic logarithm of the IC50, by convention in mol/L. A lower pIC50 goes with a large IC50.

The assay concerns the target Tyrosine-protein kinase JAK1 (Homo sapiens, UniProt P23458). Nature of the assay: ADP-Glo Kinase Assay: A control material and a test material were prepared for each concentration, in such a way that they were diluted by means of DMSO. At the same time, ATP (250 uM) and JAK substrate (JAK1, IRS-itide 40 ng/mL) were prepared, in such a way that they were diluted by means of kinase buffer (40 mM Tris-HCl pH 7.5, 20 mM MgCl2, 0.5 mg/mL BSA, 50 uM DTT).A test drug for each concentration, substrate, ATP and JAK enzyme were mixed in an eppendorf tube, and reacted in a 30° C. incubator for 40 minutes.ADP-Glo™ reagent contained in ADP-Glo™ Kinase Enzyme System (Promega, USA, V9571) was added into each eppendorf tube, and reacted in a 30° C. incubator for 40 minutes. A kinase detection reagent contained in ADP-Go™ Kinase Enzyme System was inserted into the eppendorf tube, then an integration time was set to 1 second by using Wallac Victor 2™, then luminescence was measured, and then JAKs phosphorylation inhibition ability of the test material was analyzed. The concentration of the compound, which causes 50% of the JAK enzyme activity inhibition in comparison With the control group, was determined as IC50 (nM) of an inhibitor, wherein the results thereof are shown in a following table 1. For orientation: ADP-Glo first removes unused ATP, then detects ADP through luciferase.

pIC50: −log10 of the molar value.

Chain of Tyrosine-protein kinase JAK1 (P23458 whole entry): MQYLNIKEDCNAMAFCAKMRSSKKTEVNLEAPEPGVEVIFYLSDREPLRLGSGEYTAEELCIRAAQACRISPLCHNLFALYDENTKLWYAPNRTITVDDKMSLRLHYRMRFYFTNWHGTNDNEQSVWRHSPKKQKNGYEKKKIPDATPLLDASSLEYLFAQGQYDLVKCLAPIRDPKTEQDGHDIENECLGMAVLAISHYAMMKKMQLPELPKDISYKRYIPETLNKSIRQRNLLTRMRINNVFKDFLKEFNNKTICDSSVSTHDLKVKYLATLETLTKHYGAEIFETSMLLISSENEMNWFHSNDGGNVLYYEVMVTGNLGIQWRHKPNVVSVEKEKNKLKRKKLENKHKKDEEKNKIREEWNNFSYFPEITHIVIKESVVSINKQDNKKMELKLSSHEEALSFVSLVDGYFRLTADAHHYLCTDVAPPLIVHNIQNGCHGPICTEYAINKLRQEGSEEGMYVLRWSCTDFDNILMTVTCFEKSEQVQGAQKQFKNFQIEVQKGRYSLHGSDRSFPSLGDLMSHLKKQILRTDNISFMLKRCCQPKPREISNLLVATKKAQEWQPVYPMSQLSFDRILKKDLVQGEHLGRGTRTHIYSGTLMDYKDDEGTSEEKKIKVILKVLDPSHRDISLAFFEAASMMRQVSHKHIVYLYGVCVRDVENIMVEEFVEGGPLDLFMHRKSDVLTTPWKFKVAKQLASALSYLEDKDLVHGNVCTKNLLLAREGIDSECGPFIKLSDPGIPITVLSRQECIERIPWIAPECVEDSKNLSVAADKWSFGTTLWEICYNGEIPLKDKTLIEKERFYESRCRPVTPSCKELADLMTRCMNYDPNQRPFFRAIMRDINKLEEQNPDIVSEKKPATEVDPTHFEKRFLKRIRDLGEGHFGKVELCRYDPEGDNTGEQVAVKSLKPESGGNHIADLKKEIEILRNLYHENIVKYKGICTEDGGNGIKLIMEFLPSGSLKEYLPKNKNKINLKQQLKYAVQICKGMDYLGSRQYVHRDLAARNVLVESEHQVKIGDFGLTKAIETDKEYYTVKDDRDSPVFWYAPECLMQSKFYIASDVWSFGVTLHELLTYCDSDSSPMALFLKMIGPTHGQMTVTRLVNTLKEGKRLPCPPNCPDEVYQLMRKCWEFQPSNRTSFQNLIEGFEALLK

With `CCS(=O)(=O)Nc1ccc(-c2cc(NC(=O)C3CCCCC3)nc3[nH]ccc23)cc1F`, the pIC50 was less than 6.70. The value for `CCC(=O)Nc1cc(-c2ccc(NS(=O)(=O)CC)c(F)c2)c2cc[nH]c2n1` was less than 6.70; that for `O=C(Nc1cc(C2=CCN(C(=O)CBr)CC2)c2cc[nH]c2n1)C1CC1` was less than 6.70.

For the compound `CCS(=O)(=O)Nc1ccc(-c2cc(NC(=O)C3CCCC3)nc3[nH]ccc23)cc1F`, the pIC50 is less than 6.70. For `O=C(Nc1ccc(F)cc1)Nc1ccc(-c2cc(NC(=O)C3CC3)nc3[nH]ccc23)cc1` the value was less than 6.70; for `CCS(=O)(=O)Nc1ccc(-c2cc(NC(=O)Cc3ccccc3)nc3[nH]ccc23)cc1F`, less than 6.70. For `CC1CN(C(=O)c2cc(Cl)cc(Cl)c2O)CC=C1c1cc(NC(=O)C2CC2)nc2[nH]ccc12` (centres undefined) the value was less than 6.70; for `O=C(Nc1cc(-c2ccc(CC(=O)N3CCN(S(=O)(=O)C(F)(F)F)CC3)cc2)c2cc[nH]c2n1)C1CC1`, less than 6.70. For `CC1CN(C(=O)c2cc(Cl)ncc2Cl)CC=C1c1cc(NC(=O)C2CC2)nc2[nH]ccc12` (centres undefined), the pIC50 is less than 6.70.
